What is called Ki is the equilibrium dissociation constant of an inhibitor or competing ligand from its target.

Ki data for three compounds are collected here from ChEMBL document CHEMBL1131753, “Selective binding of bryostatin analogues to the cysteine rich domains of protein kinase C isozymes” (Bioorg Med Chem Lett, 1999).

In assay [1] the target is T1, Protein kinase C delta type (Homo sapiens, UniProt Q05655). Put plainly: Displacement of [3H]PDBu from protein kinase C delta C1a domain. In general terms: Loss of bound radioactivity is the signal in a displacement assay; it reports binding, not function.
T1 sequence (Q05655 whole entry, the tested form may be a part): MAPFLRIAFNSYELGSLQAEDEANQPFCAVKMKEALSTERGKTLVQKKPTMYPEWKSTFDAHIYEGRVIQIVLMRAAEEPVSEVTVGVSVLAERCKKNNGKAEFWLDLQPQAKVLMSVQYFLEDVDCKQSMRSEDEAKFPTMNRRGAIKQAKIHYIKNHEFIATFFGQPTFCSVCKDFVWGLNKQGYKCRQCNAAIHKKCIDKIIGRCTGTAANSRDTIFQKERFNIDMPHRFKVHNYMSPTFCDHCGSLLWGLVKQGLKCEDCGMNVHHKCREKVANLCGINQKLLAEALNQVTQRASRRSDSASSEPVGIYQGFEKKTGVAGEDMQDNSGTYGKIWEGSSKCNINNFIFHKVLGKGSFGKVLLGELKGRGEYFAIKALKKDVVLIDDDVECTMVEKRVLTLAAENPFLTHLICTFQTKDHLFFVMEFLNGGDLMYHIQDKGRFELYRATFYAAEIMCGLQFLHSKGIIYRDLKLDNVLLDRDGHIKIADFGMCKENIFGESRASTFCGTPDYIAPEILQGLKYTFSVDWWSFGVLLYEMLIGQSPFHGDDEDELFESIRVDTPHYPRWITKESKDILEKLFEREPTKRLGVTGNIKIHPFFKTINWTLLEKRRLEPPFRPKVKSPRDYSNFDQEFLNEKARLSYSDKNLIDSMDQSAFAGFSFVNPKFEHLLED
The target in assay [2] is Protein kinase C beta type (Homo sapiens, UniProt P05771). Put plainly: Displacement of [3H]PDBu from protein kinase C beta C1b domain.
Chain of Protein kinase C beta type (P05771 whole entry, the tested form may be a part): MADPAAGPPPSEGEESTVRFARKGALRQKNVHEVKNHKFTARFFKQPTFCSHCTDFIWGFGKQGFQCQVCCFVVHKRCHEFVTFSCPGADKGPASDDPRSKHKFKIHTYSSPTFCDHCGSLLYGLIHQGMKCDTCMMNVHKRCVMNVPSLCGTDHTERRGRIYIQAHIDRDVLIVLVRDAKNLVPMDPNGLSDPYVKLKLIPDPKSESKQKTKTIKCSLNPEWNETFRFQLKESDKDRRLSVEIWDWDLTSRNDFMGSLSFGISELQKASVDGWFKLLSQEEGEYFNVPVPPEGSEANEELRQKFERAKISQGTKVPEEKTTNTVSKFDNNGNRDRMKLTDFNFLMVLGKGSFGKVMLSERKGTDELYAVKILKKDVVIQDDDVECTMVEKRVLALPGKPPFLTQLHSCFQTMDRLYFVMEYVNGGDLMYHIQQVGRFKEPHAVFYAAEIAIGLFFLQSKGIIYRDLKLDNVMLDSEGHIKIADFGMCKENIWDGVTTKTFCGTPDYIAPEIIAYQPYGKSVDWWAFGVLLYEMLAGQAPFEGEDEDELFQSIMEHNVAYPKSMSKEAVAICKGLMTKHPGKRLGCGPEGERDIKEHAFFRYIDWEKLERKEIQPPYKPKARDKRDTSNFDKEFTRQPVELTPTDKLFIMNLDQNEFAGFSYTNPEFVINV
Assay [3] deals with T1, Protein kinase C delta type. Description: Displacement of [3H]PDBu from protein kinase C delta C1b domain.
Assay [4] addresses T2, Protein kinase C gamma type (Homo sapiens, UniProt P05129). Description: Displacement of [3H]-PDBu from protein kinase C gamma C1a domain.
The target in assay [5] is T2, Protein kinase C gamma type. Description: Displacement of [3H]PDBu from protein kinase C gamma C1b domain.
In assay [6] the target is T3, Protein kinase C epsilon type (Homo sapiens, UniProt Q02156).
T3 sequence (Q02156 whole entry): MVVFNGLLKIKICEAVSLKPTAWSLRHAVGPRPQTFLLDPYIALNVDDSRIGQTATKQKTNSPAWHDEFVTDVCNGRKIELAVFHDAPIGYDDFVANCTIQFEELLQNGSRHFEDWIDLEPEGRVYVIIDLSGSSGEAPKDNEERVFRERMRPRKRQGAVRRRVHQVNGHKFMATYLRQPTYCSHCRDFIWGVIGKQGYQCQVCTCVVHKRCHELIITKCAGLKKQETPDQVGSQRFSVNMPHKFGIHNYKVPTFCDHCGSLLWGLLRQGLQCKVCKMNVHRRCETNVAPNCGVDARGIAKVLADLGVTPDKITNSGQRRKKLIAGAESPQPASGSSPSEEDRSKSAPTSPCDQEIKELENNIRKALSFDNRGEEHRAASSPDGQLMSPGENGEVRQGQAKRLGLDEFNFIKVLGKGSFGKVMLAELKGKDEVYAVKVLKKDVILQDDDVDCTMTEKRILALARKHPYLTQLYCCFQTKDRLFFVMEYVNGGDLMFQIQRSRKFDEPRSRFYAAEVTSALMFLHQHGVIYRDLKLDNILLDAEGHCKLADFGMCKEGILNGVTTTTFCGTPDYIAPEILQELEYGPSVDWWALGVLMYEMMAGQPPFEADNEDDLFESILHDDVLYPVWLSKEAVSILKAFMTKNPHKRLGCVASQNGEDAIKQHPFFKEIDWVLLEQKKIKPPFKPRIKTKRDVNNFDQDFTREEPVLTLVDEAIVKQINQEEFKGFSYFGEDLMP
Description: Displacement of [3H]PDBu from protein kinase C epsilon C1b domain.

The target in assay [7] is Protein kinase C eta type (Homo sapiens, UniProt P24723). Description: Displacement of [3H]PDBu from protein kinase C eta C1b domain.
Chain of Protein kinase C eta type (P24723 whole entry, the tested form may be a part): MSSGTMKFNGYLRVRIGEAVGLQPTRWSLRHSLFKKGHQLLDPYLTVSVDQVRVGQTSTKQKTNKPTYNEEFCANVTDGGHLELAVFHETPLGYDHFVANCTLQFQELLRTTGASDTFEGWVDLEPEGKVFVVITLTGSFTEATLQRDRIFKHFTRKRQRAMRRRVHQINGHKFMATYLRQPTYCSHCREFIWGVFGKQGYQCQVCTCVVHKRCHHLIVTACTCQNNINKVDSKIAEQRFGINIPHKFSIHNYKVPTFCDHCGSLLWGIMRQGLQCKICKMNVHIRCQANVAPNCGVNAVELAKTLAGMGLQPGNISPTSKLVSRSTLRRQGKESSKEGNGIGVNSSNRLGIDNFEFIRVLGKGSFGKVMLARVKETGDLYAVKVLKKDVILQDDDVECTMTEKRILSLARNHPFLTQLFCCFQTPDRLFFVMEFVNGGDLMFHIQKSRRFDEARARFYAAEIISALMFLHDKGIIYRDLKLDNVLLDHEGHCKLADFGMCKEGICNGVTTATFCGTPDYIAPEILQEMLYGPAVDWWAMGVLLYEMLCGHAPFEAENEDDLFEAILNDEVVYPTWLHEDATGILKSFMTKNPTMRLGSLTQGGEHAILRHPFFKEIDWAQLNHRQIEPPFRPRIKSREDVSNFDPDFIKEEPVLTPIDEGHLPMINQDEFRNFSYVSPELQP
The target in assay [8] is Protein kinase C theta type (Homo sapiens, UniProt Q04759). Put plainly: Displacement of [3H]PDBu from protein kinase C theta-C1B domain.
Chain of Protein kinase C theta type (Q04759 whole entry, the tested form may be a part): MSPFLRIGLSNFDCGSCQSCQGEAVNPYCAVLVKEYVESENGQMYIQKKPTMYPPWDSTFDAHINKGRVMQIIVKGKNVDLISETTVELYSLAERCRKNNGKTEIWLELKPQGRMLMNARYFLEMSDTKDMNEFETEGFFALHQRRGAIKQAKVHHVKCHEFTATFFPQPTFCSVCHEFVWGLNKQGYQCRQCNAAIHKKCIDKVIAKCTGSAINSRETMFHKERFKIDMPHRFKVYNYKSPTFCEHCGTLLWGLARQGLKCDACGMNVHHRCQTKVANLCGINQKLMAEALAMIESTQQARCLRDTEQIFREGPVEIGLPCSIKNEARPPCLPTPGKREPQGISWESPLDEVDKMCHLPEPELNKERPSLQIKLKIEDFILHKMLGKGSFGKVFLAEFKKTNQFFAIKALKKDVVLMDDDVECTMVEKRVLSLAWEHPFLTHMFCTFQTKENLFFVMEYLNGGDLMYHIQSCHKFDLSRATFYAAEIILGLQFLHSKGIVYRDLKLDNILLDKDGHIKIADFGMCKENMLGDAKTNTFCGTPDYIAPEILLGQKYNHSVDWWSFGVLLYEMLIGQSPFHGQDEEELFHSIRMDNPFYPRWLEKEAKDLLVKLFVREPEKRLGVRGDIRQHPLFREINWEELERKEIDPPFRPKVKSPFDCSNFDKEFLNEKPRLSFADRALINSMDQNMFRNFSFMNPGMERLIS
Assay [9] has as its target Protein kinase C alpha type (Homo sapiens, UniProt P17252). Put plainly: Displacement of [3H]PDBu from protein kinase C alpha C1b domain.

`CCCCCCCC(=O)O[C@H]1/C(=C/C(=O)OC)CC2C[C@H]([C@@H](C)O)OC(=O)C[C@H](O)CCO[C@H](C(C)(C)C)C[C@@H]3CCO[C@H](/C=C/C(C)(C)[C@]1(O)O2)O3`: the Ki was 85.4 nM in assay [1]; 36.4 nM in assay [2]; 6.3 nM in assay [3]; greater than 500 nM in assay [4]; greater than 500 nM in assay [5]; 55 nM in [6]. Moreover, the Ki in assay [7] was 70.2 nM; in [8], 24.1 nM; in assay [9], greater than 500 nM.

Consider `CCCCCCCC(=O)O[C@H]1/C(=C/C(=O)OC)CC2C[C@H]([C@@H](C)O)OC(=O)C[C@@H](O)C[C@@H]3CCC[C@H](C[C@@H]4CCO[C@H](/C=C/C(C)(C)[C@]1(O)O2)O4)O3`, for which the Ki is 494 nM in assay [1]; 280 nM in assay [2]; 64.2 nM in assay [3]; greater than 500 nM in assay [4]; greater than 500 nM in [5]; 490 nM in [6]. In addition, the Ki was greater than 500 nM in [7], 147 nM in [8] and greater than 500 nM in assay [9].

Consider `CCCCCCCC(=O)O[C@H]1/C(=C/C(=O)OC)CC2C[C@H]([C@@H](C)O)OC(=O)C[C@H](O)C[C@@H]3CCC[C@H](C[C@@H]4CCO[C@H](/C=C/C(C)(C)[C@]1(O)O2)O4)O3`, for which the Ki in assay [1] was 65.9 nM; in assay [2], 13.4 nM; in assay [3], 2.5 nM; in [4], greater than 500 nM; in assay [5] it was greater than 500 nM; in [6], 17.9 nM. Moreover, the values for the Ki in assay [7], in assay [8] and in [9] were 23.5 nM, 6.6 nM and 126 nM, respectively.
